Measured values as given in patent publication US8865734B2 (priority 2010, dated 2014).
Values after ≈ are worked out from the molar mass of the structure shown.

Assays:
[1] = system: in vitro grown Mycobacteria (M. tuberculosis); experiment: QUM: Quantification of in vitro grown Mycobacteria (in vitro growth fluorescence assay); assay type: cell-based; settings: Mycobacterium tuberculosis; MIC, 80% bacterial growth inhibition; in vitro growth; read-out: QUM
Method in brief: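 Mycobacterium tuberculosis grown in vitro was quantified by fluorescence across compound dose responses. MIC is defined as the minimum concentration producing 80% growth inhibition.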

[2] = system: M. tuberculosis inside the host macrophage; experiment: QIM: Quantification of Intracellular Mycobacteria (intracellular growth assay, phenotypic cell-based); settings: Mycobacterium tuberculosis; MIC, 80% bacterial growth inhibition; intracellular growth; read-out: QIM
Method in brief: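 Dose-response testing of intracellular mycobacterial replication in infected macrophages, a cell-based screening format; MIC is defined as the lowest concentration achieving 80% inhibition of bacterial growth.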

Compound | MIC [1] | MIC [2] | melting point
CCc1nc2cc(Br)ccn2c1C(=O)NCc1ccc(N2CCN(c3ccc(F)cc3)CC2)cc1 [Compound 311, 7-Bromo-2-ethyl-N-(4-(4-(4-fluorophenyl)piperazin-1-yl)benzyl)imidazo[1,2-a]pyridine-3-carboxamide] | < 1 µM | < 1 µM | 214.6 °C
CCc1nc2ccc(Cl)cn2c1C(=O)NCCc1ccc(Cl)cc1 [Compound 158, 6-Chloro-N-(4-chlorophenethyl)-2-ethylimidazo[1,2-a]pyridine-3-carboxamide] | < 1 µM | < 1 µM | 158 to 159 °C
CCc1nc2ccc(Cl)cn2c1C(=O)NCc1ccc(N2CC(C)CC(C)C2)cc1 (stereo not drawn) [Compound 216, 6-Chloro-N-(4-(3,5-dimethylpiperidin-1-yl)benzyl)-2-ethylimidazo[1,2-a]pyridine-3-carboxamide] | < 1 µM | < 1 µM | 157.2 to 158 °C
CCc1nc2ccc(Br)cn2c1C(=O)NCc1ccc(N2CCOCC2)cc1 [Compound 315, 6-Bromo-2-ethyl-N-(4-morpholinobenzyl)imidazo[1,2-a]pyridine-3-carboxamide] | < 1 µM | < 1 µM | 228.2 °C
CCc1nc2ccc(Cl)cn2c1C(=O)NCc1ccc(N2CCC(c3ccc(F)cc3)CC2)cc1 [Compound 286, 6-Chloro-2-ethyl-N-(4-(4-(4-fluorophenyl)piperidin-1-yl)benzyl)imidazo[1,2-a]pyridine-3-carboxamide] | < 1 µM | < 1 µM | 164 °C
CCc1nc2c(F)cccn2c1C(=O)NCc1ccc(N2CCN(c3ccc(F)cc3)CC2)cc1 [Compound 310, 2-Ethyl-8-fluoro-N-(4-(4-(4-fluorophenyl)piperazin-1-yl)benzyl)imidazo[1,2-a]pyridine-3-carboxamide] | < 1 µM | < 1 µM | 204.1 °C
CCc1nc2cnccn2c1C(=O)NCc1ccc(OC(F)(F)F)cc1 [Compound 155, 2-Ethyl-N-(4-(trifluoromethoxy)benzyl)imidazo[1,2-a]pyrazine-3-carboxamide] | > 20 µM | > 20 µM | 176 to 177 °C
CCc1nc2ccc(Cl)cn2c1C(=O)NCc1ccc(C#N)cc1 [Compound 146, 6-Chloro-N-(4-cyanobenzyl)-2-ethylimidazo[1,2-a]pyridine-3-carboxamide] | > 20 µM | 1 to 20 µM (≈ 0.339 to 6.78 µg/mL) | 223 to 224 °C
CCc1nc2cc(Cl)ccn2c1C(=O)NCc1ccc(N2CCN(Cc3ccc(OC(F)(F)F)cc3)CC2)cc1 [Compound 174, 7-Chloro-2-ethyl-N-(4-(4-(4-(trifluoromethoxy)benzyl)piperazin-1-yl)benzyl)imidazo[1,2-a]pyridine-3-carboxamide] | < 1 µM | < 1 µM | 137.1 to 137.6 °C
CCc1nc2cc(N3CCN(Cc4ccc(F)cc4)CC3)ccn2c1C(=O)NCc1ccc(N2CCOCC2)cc1 [Compound 331, 2-Ethyl-7-(4-(4-fluorobenzyl)piperazin-1-yl)-N-(4-morpholinobenzyl)imidazo[1,2-a]pyridine-3-carboxamide] | > 20 µM | > 20 µM | 212.5 °C
CCc1nc2ccc(Cl)cn2c1-c1nc(Cc2ccc(OC(F)(F)F)cc2)no1 [Compound 243, 5-(6-Chloro-2-ethylimidazo[1,2-a]pyridin-3-yl)-3-(4-(trifluoromethoxy)benzyl)-1,2,4-oxadiazole] | > 20 µM | > 20 µM | 146.4 to 146.9 °C
CCc1nc2ccc(Cl)cn2c1CNc1ccc(Oc2ccc(F)cc2)cc1 [Compound 242, N-((6-Chloro-2-ethylimidazo[1,2-a]pyridin-3-yl)methyl)-4-(4-fluorophenoxy)aniline] | > 20 µM | > 20 µM | 148.6 to 148.8 °C
CCc1nc2cc(-c3ccncc3)ccn2c1C(=O)NCc1ccc(N2CCOCC2)cc1 [Compound 325, 2-Ethyl-N-(4-morpholinobenzyl)-7-(pyridin-4-yl)imidazo[1,2-a]pyridine-3-carboxamide] | > 20 µM | > 20 µM | 210.1 °C
CCc1nc2ccc(Cl)cn2c1C(=O)NCc1ccc(N2CC(C)OC(C)C2)cc1 (stereo not drawn) [Compound 209, 6-Chloro-N-(4-(2,6-dimethylmorpholino)benzyl)-2-ethylimidazo[1,2-a]pyridine-3-carboxamide] | < 1 µM | < 1 µM | 176 to 177 °C
CCc1nc2ccccn2c1C(=O)NCc1ccc(N2CCN(c3ccc(F)cc3)CC2)cc1 [Compound 303, 2-Ethyl-N-(4-(4-(4-fluorophenyl)piperazin-1-yl)benzyl)imidazo[1,2-a]pyridine-3-carboxamide] | < 1 µM | < 1 µM | 189.2 °C
CCc1nc2cc(Cl)ccn2c1C(=O)NCc1ccc(N2CCOCC2)cc1 [Compound 89, 7-Chloro-2-ethyl-N-(4-morpholinobenzyl)imidazo[1,2-a]pyridine-3-carboxamide] | < 1 µM | 1 to 20 µM (≈ 0.399 to 7.98 µg/mL) | 195 °C
CCc1nc2cc(Cl)ccn2c1C(=O)NCc1ccc(Oc2ccc(F)cc2)nc1 [Compound 193, 7-Chloro-2-ethyl-N-((6-(4-fluorophenoxy)pyridin-3-yl)methyl)imidazo[1,2-a]pyridine-3-carboxamide] | < 1 µM | < 1 µM | 167 to 167.6 °C
CCc1nc2ccc(Cl)cn2c1C(=O)NCc1ccc(C(F)(F)F)cc1 [Compound 147, 6-Chloro-2-ethyl-N-(4-(trifluoromethyl)benzyl)imidazo[1,2-a]pyridine-3-carboxamide] | < 1 µM | < 1 µM | 179 to 180 °C
CCc1nc2cc(Cl)ccn2c1C(=O)NCc1ccc(N2CCC(COC)CC2)cc1 [Compound 282, 7-Chloro-2-ethyl-N-(4-(4-(methoxymethyl)piperidin-1-yl)benzyl)imidazo[1,2-a]pyridine-3-carboxamide] | < 1 µM | < 1 µM | 172.5 °C
CCc1nc2cc(C)ccn2c1C(=O)NCc1ccc(N2CCOCC2)cc1 [Compound 68, 2-Ethyl-7-methyl-N-(4-morpholinobenzyl)imidazo[1,2-a]pyridine-3-carboxamide] | 1 to 20 µM (≈ 0.378 to 7.57 µg/mL) | < 1 µM | 190 °C
CCc1nc2cc(Cl)ccn2c1C(=O)NCc1ccc(N2CCCCC2C)cc1 (stereo not drawn) [Compound 273, 7-chloro-2-ethyl-N-(4-(2-methylpiperidin-1-yl)benzyl)imidazo[1,2-a]pyridine-3-carboxamide] | < 1 µM | < 1 µM | 117.9 °C
CCc1nc2cc(Cl)ccn2c1C(=O)NCC1CCN(Cc2ccc(OC(F)(F)F)cc2)CC1 [Compound 228, 7-Chloro-2-ethyl-N-((1-(4-(trifluoromethoxy)benzyl)piperidin-4-yl)methyl)imidazo[1,2-a]pyridine-3-carboxamide] | > 20 µM | > 20 µM | 145 to 146 °C
CCc1nc2cc(Cl)ccn2c1C(=O)NCc1ccc(C(F)(F)F)cc1 [Compound 148, 7-Chloro-2-ethyl-N-(4-(trifluoromethyl)benzyl)imidazo[1,2-a]pyridine-3-carboxamide] | < 1 µM | < 1 µM | 196.2 to 196.9 °C
CCc1nc2ccc(Cl)cn2c1C(=O)NCc1ccc(N2CCC(COC)CC2)cc1 [Compound 281, 6-Chloro-2-ethyl-N-(4-(4-(methoxymethyl)piperidin-1-yl)benzyl)imidazo[1,2-a]pyridine-3-carboxamide] | < 1 µM | < 1 µM | 162.1 °C
CCc1nc2ccc(Cl)cn2c1CNc1ccc(N2CCN(c3ccc(F)cc3)CC2)cc1 [Compound 241, N-((6-Chloro-2-ethylimidazo[1,2-a]pyridin-3-yl)methyl)-4-(4-(4-fluorophenyl)piperazin-1-yl)aniline] | > 20 µM | > 20 µM | 191 to 192 °C
CCc1nc2ccccn2c1C(=O)NCc1ccc(N2CCC(COc3ccc(F)cc3)CC2)cc1 [Compound 295, 2-Ethyl-N-(4-(4-((4-fluorophenoxy)methyl)piperidin-1-yl)benzyl)imidazo[1,2-a]pyridine-3-carboxamide] | < 1 µM | < 1 µM | 144.2 °C
CCc1nc2ccccn2c1C(=O)NCc1ccc(N2CCN(c3ccc(OC(F)(F)F)cc3)CC2)cc1 [Compound 181, 2-Ethyl-N-(4-(4-(4-(trifluoromethoxy)phenyl)piperazin-1-yl)benzyl)imidazo[1,2-a]pyridine-3-carboxamide] | < 1 µM | < 1 µM | 178 to 179 °C
CCc1nc2ccc(F)cn2c1C(=O)NCc1ccc(N2CCN(c3ccc(F)cc3)CC2)cc1 [Compound 306, 2-Ethyl-6-fluoro-N-(4-(4-(4-fluorophenyl)piperazin-1-yl)benzyl)imidazo[1,2-a]pyridine-3-carboxamide] | < 1 µM | < 1 µM | 200.9 °C
CCc1nc2c[n+]([O-])ccn2c1C(=O)NCc1ccc(OC(F)(F)F)cc1 [Compound 156, 2-Ethyl-3-((4-(trifluoromethoxy)benzyl)carbamoyl)imidazo[1,2-a]pyrazine 7-oxide] | > 20 µM | > 20 µM | 215 to 216 °C
CCc1nc2cc(Cl)ccn2c1C(=O)NCc1ccc(N2CCN(c3ccc(OC(F)(F)F)cc3)CC2)cc1 [Compound 179, 7-Chloro-2-ethyl-N-(4-(4-(4-(trifluoromethoxy)phenyl)piperazin-1-yl)benzyl)imidazo[1,2-a]pyridine-3-carboxamide] | < 1 µM | < 1 µM | 216.3 to 217 °C
